# pIC50: −log10 of the molar value.
# How the values were obtained:
# [1] = molecular target: T1, CDK9/CycT1 (Homo sapiens (Human), UniProt P50750); assay: CDK9 kinase assay, ATP concentration at Km (mobility shift, Caliper LC3000); format: biochemical; settings: 6 μM ATP, 3 nM CDK9/CycT1; read-out: CDK9 ATP conc. at Km (IC50)
# Experimental: (§1) Activity of CDK9 was determined in-vitro using a mobility shift assay on a Caliper LC3000 reader (Caliper/PerkinElmer), which measures fluorescence of a phosphorylated and unphosphorylated fluorescent peptide substrate and calculates a ratiometric value to determine percent turnover. Phosphorylation of the peptide in the presence and absence of the compound of interest was determined. Enzyme/substrate/adenosine triphosphate (ATP) mix (3 nM CDK9/CycT1, 6 μM ATP, 1.5 μM CDK9 peptide substrate (FITC-X-GSRTPMY-NH2 (X: epsilon aminocaproic acid)), 50 mM HEPES (pH7.2), 1 mM dithiothreitol, 0.01% tween 20, 50 μg/mL bovine serum albumin, (final assay concentration)) (5 μl) was preincubated with 2 μl of compound for 15 minutes at 25° C. Reactions were initiated with 5 μl of 24 mM MgCl2 (10 mM final assay concentration) in buffer (50 mM HEPES (pH7.2), 1 mM dithiothreitol, 0.01% tween 20, 50 μg/mL bovine serum albumin, (final assay concentration) and incubated at 25° C. for 90 minutes and reactions were stopped by addition of 5 μl of Stop mix consisting of 65 mM HEPES (pH7.2), 35.5 mM EDTA, 0.227% Coatin Reagent 3 (Caliper/PerkinElmer), and 0.003% Tween. Phosphorylated and unphosphorylated substrate was detected by a Caliper LC3000 reader (Caliper/PerkinElmer) in the presence of separation buffer consisting of 100 mM HEPES (pH7.2), 15.8 mM EDTA, 0.1% Coatin Reagent 3 (Caliper/PerkinElmer), 0.015% Brij-35, 5% DMSO, and 5.6 mM MgCl2. CDK9 enzyme was acquired from Carna Biosciences (Catalogue number 04-110), the CDK9 peptide substrate was acquired from Intonation (Boston, Mass.; Custom-made).
# [2] = molecular target: T1, CDK9/CycT1; assay: CDK9 kinase assay, high ATP concentration (5 mM ATP); format: biochemical; settings: 1.5 nM CDK9, read-out: CDK9 High ATP conc. (IC50)
# Experimental: as §1
# High ATP assays were run the same way with the following modifications: the final assay concentration of CDK9 was 1.5 nM and the final assay concentration of ATP was 5 mM.
# [3] = test system: phosphorylation of RNA Polymerase II (RNAPII) at the Ser2 site in MCF7 cells; assay: MCF7 pSer2 RNAPII MOA assay (immunofluorescence); format: cell-based; settings: Homo sapiens, MCF7, 6 h, 6-hr treatment, read-out: p-Ser 2 RNAPII (IC50)
# Experimental: MCF7 pSer2 RNAPII MOA Assay
# This is an immunofluorescence assay to determine the effect of CDK9 inhibitors on phosphorylation of RNA Polymerase II (RNAPII) at the Ser2 site in the breast cancer cell line, MCF7. On day one, 2500 MCF7 cells/well were seeded in 30 μl of growth media (RPMI+10% FBS+1% L-Glu+P/S) in 384-well black-wall clear-bottom plates, incubate plates overnight at 37° C. incubator. On the second day, the cells were treated with CDK9 inhibitors (7 point dose response ranging from 3 μM to 0.004 μM) using an ECHO liquid handler (Labcyte). After 6-hr treatment at 37° C. incubator, the cells were fixed with 30 µl/well 7.4% paraformaldehyde for 15 min at room temperature; the cells were washed twice with PBS, then permeabilized with 0.3% Triton X/PBS for 5 min at room temperature. After washing cells with PBS, the cells were incubated with 1:2000 diluted Anti-Ser2 Phospho-RNA pol II antibody (Covance MMS-129R) in 3% FBS/0.1% PBST overnight at 4° C. On the next day, the cells were washed twice with 0.1% PBST, then incubated with 1:1000 diluted Alexa Fluor 488 Goat-anti-mouse antibody (Life Technologies A-11001) and 1:4000 diluted DAPI at room temperature in dark. After one hour incubation, the cells were washed twice with 0.1% PBST, and once with PBS. The plates where sealed and read on an Acumen eX3 microplate cytometer (TTP Labtech) to assess phosphorylation level in each well.
# [4] = test system: MV411 cells; assay: MV411 caspase activity assay (Caspase-Glo 3/7); format: cell-based; settings: Homo sapiens, MV4-11, 6 h, 6-hr treatment, caspase 3/7 induction
# Experimental: MV411 Caspase Activity Assay
# This is a cell assay to measure the induction of caspase activity in the acute myeloid leukemia cell line, MV411 after 6-hr treatment with CDK9 inhibitors. On the first day, 3000 MV411 cells/well were seeded in 50 μl of growth media (IMDM+10% FBS+2% L-Glu+P/S) in 384-well white plates, incubate plates in 37° C. incubator overnight. […] After 6 hour incubation in 37° C. incubator, 25 μl of Caspase-Glo 3/7 reagent (Promega) per well was added into each well, and plates were incubated at room temperature for 30 min in dark. The plates were read on an Infinite M200 microplate reader (Tecan) with a 100 ms integration time.
# T1 sequence (P50750 whole entry): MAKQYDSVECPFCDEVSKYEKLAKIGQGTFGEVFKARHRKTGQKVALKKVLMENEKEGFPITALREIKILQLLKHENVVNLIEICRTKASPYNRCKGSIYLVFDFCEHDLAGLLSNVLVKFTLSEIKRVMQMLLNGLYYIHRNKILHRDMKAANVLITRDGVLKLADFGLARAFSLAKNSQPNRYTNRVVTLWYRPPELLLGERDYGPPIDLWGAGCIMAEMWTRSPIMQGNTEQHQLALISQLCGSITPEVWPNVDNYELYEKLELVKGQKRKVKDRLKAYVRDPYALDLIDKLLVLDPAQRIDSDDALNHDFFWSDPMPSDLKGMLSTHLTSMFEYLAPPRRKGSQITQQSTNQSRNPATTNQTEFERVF
# T1 sequence (O60563 whole entry partner): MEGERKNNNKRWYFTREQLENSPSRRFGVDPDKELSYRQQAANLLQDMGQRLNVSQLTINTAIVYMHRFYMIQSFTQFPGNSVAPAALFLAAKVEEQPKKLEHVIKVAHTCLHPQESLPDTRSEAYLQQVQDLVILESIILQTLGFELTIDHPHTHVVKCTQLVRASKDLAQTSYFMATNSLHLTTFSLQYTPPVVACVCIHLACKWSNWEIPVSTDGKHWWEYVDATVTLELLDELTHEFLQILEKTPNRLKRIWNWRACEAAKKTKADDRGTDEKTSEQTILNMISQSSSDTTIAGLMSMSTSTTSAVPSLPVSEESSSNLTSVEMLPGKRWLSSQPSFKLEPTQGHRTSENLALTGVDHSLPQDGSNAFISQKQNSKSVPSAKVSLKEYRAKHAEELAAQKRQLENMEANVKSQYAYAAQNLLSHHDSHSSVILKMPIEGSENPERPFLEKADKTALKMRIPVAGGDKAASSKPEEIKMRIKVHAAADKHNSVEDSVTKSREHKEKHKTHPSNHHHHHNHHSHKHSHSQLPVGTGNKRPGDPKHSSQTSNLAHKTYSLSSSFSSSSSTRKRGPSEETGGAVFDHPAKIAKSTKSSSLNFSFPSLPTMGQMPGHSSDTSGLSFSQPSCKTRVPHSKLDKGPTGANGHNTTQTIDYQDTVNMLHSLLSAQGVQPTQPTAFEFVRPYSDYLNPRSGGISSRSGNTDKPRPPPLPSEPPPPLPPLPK
pIC50 [1],pIC50 [2],pIC50 [3],pIC50 [4],Structure (SMILES)
> 8.52,7.92,7.44,7.05,"N#CCC(=O)N[C@@H]1CCC[C@H](C(=O)Nc2cc(-c3cnn4c3CCCC4)c(Cl)cn2)C1 [Example 31, (1S,3R)—N-(5-chloro-4-(4,5,6,7-tetrahydropyrazolo[1,5-a]pyridin-3-yl)pyridin-2-yl)-3-(2-cyanoacetamido)cyclohexanecarboxamide]"
> 8.52,8.40,7.96,7.82,"CC1(C)Cc2c(-c3cc(NC(=O)[C@H]4CCC[C@@H](NC(=O)[C@H]5CCOC5)C4)ncc3Cl)cnn2C1 [Example 24, (S)—N-((1R,3S)-3-((5-chloro-4-(5,5-dimethyl-5,6-dihydro-4H-pyrrolo[1,2-b]pyrazol-3-yl)pyridin-2-yl)carbamoyl)cyclohexyl)tetrahydrofuran-3-carboxamide]"
> 8.52,7.41,6.72,6.55,"CC(=O)N[C@@H]1CCC[C@H](C(=O)Nc2cc(-c3cnn4c3CCCCC4)c(F)cn2)C1 [Example 74, (1S,3R)-3-acetamido-N-(5-fluoro-4-(5,6,7,8-tetrahydro-4H-pyrazolo[1,5-a]azepin-3-yl)pyridin-2-yl)cyclohexanecarboxamide]"
7.41,5.36,< 5.54,5.10,"CC(=O)N[C@@H]1CCC[C@H](C(=O)Nc2cc(-c3nnn4c3CCCC4)c(Cl)cn2)C1 [Example 49, (1S,3R)-3-acetamido-N-(5-chloro-4-(4,5,6,7-tetrahydro-[1,2,3]triazolo[1,5-a]pyridin-3-yl)pyridin-2-yl)cyclohexanecarboxamide]"
8.40,7.44,6.68,6.85,"CC1(C)Cc2c(-c3ccnc(NC(=O)[C@H]4CCC[C@@H](NC(=O)C5(O)CC5)C4)c3)cnn2C1 [Example 17, (1S,3R)—N-(4-(5,5-dimethyl-5,6-dihydro-4H-pyrrolo[1,2-b]pyrazol-3-yl)pyridin-2-yl)-3-(1-hydroxycyclopropanecarboxamido)cyclohexanecarboxamide]"
> 8.52,8.15,7.35,7.37,"CC(=O)N[C@@H]1CCC[C@H](C(=O)Nc2cc(-c3cnn4c3CC(C)CC4)c(Cl)cn2)C1 (single isomer, unassigned) [Example 64]"
> 8.52,8.40,7.55,7.28,"CC1(C)Cc2ncc(-c3cc(NC(=O)[C@H]4CCC[C@@H](NC(=O)C5COC5)C4)ncc3Cl)n2C1 [Example 57, N-((1R,3S)-3-((5-chloro-4-(6,6-dimethyl-6,7-dihydro-5H-pyrrolo[1,2-a]imidazol-3-yl)pyridin-2-yl)carbamoyl)cyclohexyl)oxetane-3-carboxamide]"
> 8.52,8.40,7.54,7.66,"CC1(C)Cc2ncc(-c3cc(NC(=O)[C@H]4CCC[C@@H](NC(=O)C5(O)CC5)C4)ncc3Cl)n2C1 [Example 56, (1S,3R)—N-(5-chloro-4-(6,6-dimethyl-6,7-dihydro-5H-pyrrolo[1,2-a]imidazol-3-yl)pyridin-2-yl)-3-(1-hydroxycyclopropanecarboxamido)cyclohexanecarboxamide]"
> 8.52,7.42,6.83,6.75,"C[C@H](O)C(=O)N[C@@H]1CCC[C@H](C(=O)Nc2cc(-c3cnn4c3CCCC4)c(Cl)cn2)C1 [Example 37, (1S,3R)—N-(5-chloro-4-(4,5,6,7-tetrahydropyrazolo[1,5-a]pyridin-3-yl)pyridin-2-yl)-3-((S)-2-hydroxypropanamido)cyclohexanecarboxamide]"
> 8.52,7.85,6.91,7.15,"CC1(C)Cc2c(-c3ccnc(NC(=O)[C@H]4CCC[C@@H](NC(=O)C5COC5)C4)c3)cnn2C1 [Example 18, N-((1R,3S)-3-((4-(5,5-dimethyl-5,6-dihydro-4H-pyrrolo[1,2-b]pyrazol-3-yl)pyridin-2-yl)carbamoyl)cyclohexyl)oxetane-3-carboxamide]"
> 8.52,7.39,7.77,7.12,"CC1(C)Cc2ncc(-c3cc(NC(=O)[C@H]4C[C@@H](O)C4)ncc3Cl)n2C1 [Example 58, cis-N-(5-chloro-4-(6,6-dimethyl-6,7-dihydro-5H-pyrrolo[1,2-a]imidazol-3-yl)pyridin-2-yl)-3-hydroxycyclobutanecarboxamide]"
8.30,6.66,6.26,6.48,"CC(=O)N[C@@H]1CCC[C@H](C(=O)Nc2cc(-c3cnn4c3CCC4)c(Cl)cn2)C1 [Example 10, (1S,3R)-3-acetamido-N-(5-chloro-4-(5,6-dihydro-4H-pyrrolo[1,2-b]pyrazol-3-yl)pyridin-2-yl)cyclohexanecarboxamide]"
8.30,6.46,5.89,6.17,"CC(=O)N[C@@H]1CCC[C@H](C(=O)Nc2cc(-c3cnn4c3NCCC4)c(Cl)cn2)C1 [Example 15, (1S,3R)-3-acetamido-N-(5-chloro-4-(4,5,6,7-tetrahydropyrazolo[1,5-a]pyrimidin-3-yl)pyridin-2-yl)cyclohexanecarboxamide]"
> 8.52,7.22,6.14,5.91,"CC(=O)N[C@@H]1CCC[C@H](C(=O)Nc2cc(-c3cnn4c3CCCC4O)c(Cl)cn2)C1 (stereo partly drawn) [Example 78, (1S,3R)-3-acetamido-N-(5-chloro-4-(7-hydroxy-4,5,6,7-tetrahydropyrazolo[1,5-a]pyridin-3-yl)pyridin-2-yl)cyclohexanecarboxamide]"
> 8.52,> 8.52,8.15,8.00,"CC1(C)Cc2c(-c3cc(NC(=O)[C@H]4CCC[C@@H](NC(=O)C5(O)CC5)C4)ncc3F)cnn2C1 [Example 55, (1S,3R)—N-(4-(5,5-dimethyl-5,6-dihydro-4H-pyrrolo[1,2-b]pyrazol-3-yl)-5-fluoropyridin-2-yl)-3-(1-hydroxycyclopropanecarboxamido)cyclohexanecarboxamide]"
> 8.52,7.07,< 5.58,5.15,"CC(=O)N[C@@H]1CCC[C@H](C(=O)Nc2cc(-c3cn[nH]c3CCCCO)c(Cl)cn2)C1 [Example 78a, (1S,3R)-3-acetamido-N-(5-chloro-4-(5-(4-hydroxybutyl)-1H-pyrazol-4-yl)pyridin-2-yl)cyclohexanecarboxamide]"
8.52,6.77,6.66,6.55,"O=C(Nc1cc(-c2cnn3c2CCCC3)c(Cl)cn1)[C@H]1C[C@@H](O)C1 [Example 4, Cis-N-(5-chloro-4-(4,5,6,7-tetrahydropyrazolo[1,5-a]pyridin-3-yl)pyridin-2-yl)-3-hydroxycyclobutanecarboxamide]"

# From patent publication US10717746B2, “Chemical compounds” (ASTRAZENECA AB, priority 2015, dated 2020)
